PubChem BioAssay (NCI)
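Cultured in 96-well plates, cells were exposed to test compound for 48 hours across five concentrations. TGI denotes the concentration required for complete inhibition of growth.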

Experiments:
Assay in all cases: NCI tumour cell line growth inhibition, 48 h
786-0 renal = test system: 786-0 renal
A498 renal = test system: A498 renal
A549 NSCLC = test system: A549 NSCLC
ACHN renal = test system: ACHN renal
BT-549 breast = test system: BT-549 breast
CAKI-1 renal = test system: CAKI-1 renal
CCRF-CEM leukemia = test system: CCRF-CEM leukemia
COLO 205 colon = test system: COLO 205 colon
DU-145 prostate = test system: DU-145 prostate
EKVX NSCLC = test system: EKVX NSCLC
HCC-2998 colon = test system: HCC-2998 colon
HCT-116 colon = test system: HCT-116 colon
HL-60(TB) leukemia = test system: HL-60(TB) leukemia
HOP-62 NSCLC = test system: HOP-62 NSCLC
HOP-92 NSCLC = test system: HOP-92 NSCLC
HS 578T breast = test system: HS 578T breast
HT29 colon = test system: HT29 colon
IGROV1 ovarian = test system: IGROV1 ovarian
K-562 leukemia = test system: K-562 leukemia
KM12 colon = test system: KM12 colon
LOX IMVI melanoma = test system: LOX IMVI melanoma
M14 melanoma = test system: M14 melanoma
MALME-3M melanoma = test system: MALME-3M melanoma
MCF7 breast = test system: MCF7 breast
MDA-MB-231 breast = test system: MDA-MB-231 breast
MDA-MB-435 = test system: MDA-MB-435
MDA-N = test system: MDA-N
MOLT-4 leukemia = test system: MOLT-4 leukemia
NCI-H226 lung = test system: NCI-H226 lung
NCI-H23 lung = test system: NCI-H23 lung
NCI-H460 lung = test system: NCI-H460 lung
NCI-H522 lung = test system: NCI-H522 lung
NCI/ADR-RES ovarian = test system: NCI/ADR-RES ovarian
OVCAR-3 ovarian = test system: OVCAR-3 ovarian
OVCAR-4 ovarian = test system: OVCAR-4 ovarian
OVCAR-5 ovarian = test system: OVCAR-5 ovarian
OVCAR-8 ovarian = test system: OVCAR-8 ovarian
PC-3 prostate = test system: PC-3 prostate
RPMI-8226 leukemia = test system: RPMI-8226 leukemia
RXF 393 renal = test system: RXF 393 renal
SF-268 CNS = test system: SF-268 CNS
SF-295 CNS = test system: SF-295 CNS
SF-539 CNS = test system: SF-539 CNS
SK-MEL-28 melanoma = test system: SK-MEL-28 melanoma
SK-MEL-5 melanoma = test system: SK-MEL-5 melanoma
SN12C renal = test system: SN12C renal
SNB-19 CNS = test system: SNB-19 CNS
SNB-75 CNS = test system: SNB-75 CNS
SR leukemia = test system: SR leukemia
SW-620 colon = test system: SW-620 colon
T-47D breast = test system: T-47D breast
TK-10 renal = test system: TK-10 renal
U251 CNS = test system: U251 CNS
UACC-257 melanoma = test system: UACC-257 melanoma
UACC-62 melanoma = test system: UACC-62 melanoma
UO-31 renal = test system: UO-31 renal
HCT-15 colon = test system: HCT-15 colon
SK-MEL-2 melanoma = test system: SK-MEL-2 melanoma
SK-OV-3 ovarian = test system: SK-OV-3 ovarian

How did the TGI (786-0 renal) turn out when `O=c1cc(O)c2ccccc2o1` was run?
Its TGI is > 100 µM.

What about the TGI (A498 renal) of the same compound?
The TGI was > 100 µM.

And the TGI (A549 NSCLC)?
Its TGI is > 100 µM.

And the TGI (ACHN renal)?
The TGI was > 100 µM.

What about the TGI (BT-549 breast) of the same compound?
The TGI was > 100 µM.

What about the TGI (CAKI-1 renal) of the same compound?
The TGI was > 100 µM.

What about the TGI (CCRF-CEM leukemia) of the same compound?
The TGI was > 100 µM.

What about the TGI (COLO 205 colon) of the same compound?
The TGI was > 100 µM.

What about the TGI (DU-145 prostate) of the same compound?
Its TGI is > 100 µM.

What about the TGI (EKVX NSCLC) of the same compound?
Its TGI is > 100 µM.

What about the TGI (HCC-2998 colon) of the same compound?
Its TGI is > 100 µM.

What about the TGI (HCT-116 colon) of the same compound?
The TGI was > 100 µM.

What about the TGI (HL-60(TB) leukemia) of the same compound?
The TGI was > 100 µM.

And the TGI (HOP-62 NSCLC)?
Its TGI is > 100 µM.

What about the TGI (HOP-92 NSCLC) of the same compound?
Its TGI is > 100 µM.

What about the TGI (HS 578T breast) of the same compound?
Its TGI is > 100 µM.

And the TGI (HT29 colon)?
Its TGI is > 100 µM.

And the TGI (IGROV1 ovarian)?
Its TGI is > 100 µM.

What about the TGI (K-562 leukemia) of the same compound?
Its TGI is > 100 µM.

And the TGI (KM12 colon)?
Its TGI is > 100 µM.

And the TGI (LOX IMVI melanoma)?
The TGI was > 100 µM.

And the TGI (M14 melanoma)?
The TGI was > 100 µM.

What about the TGI (MALME-3M melanoma) of the same compound?
Its TGI is > 100 µM.

And the TGI (MCF7 breast)?
Its TGI is > 100 µM.

What about the TGI (MDA-MB-231 breast) of the same compound?
The TGI was > 100 µM.

And the TGI (MDA-MB-435)?
Its TGI is > 100 µM.

And the TGI (MDA-N)?
Its TGI is > 100 µM.

What about the TGI (MOLT-4 leukemia) of the same compound?
The TGI was > 100 µM.

And the TGI (NCI-H226 lung)?
Its TGI is > 100 µM.

And the TGI (NCI-H23 lung)?
Its TGI is > 100 µM.

What about the TGI (NCI-H460 lung) of the same compound?
Its TGI is > 100 µM.

What about the TGI (NCI-H522 lung) of the same compound?
Its TGI is > 100 µM.

What about the TGI (NCI/ADR-RES ovarian) of the same compound?
Its TGI is > 100 µM.

And the TGI (OVCAR-3 ovarian)?
The TGI was > 100 µM.

And the TGI (OVCAR-4 ovarian)?
Its TGI is > 100 µM.

And the TGI (OVCAR-5 ovarian)?
Its TGI is > 100 µM.

What about the TGI (OVCAR-8 ovarian) of the same compound?
The TGI was > 100 µM.

What about the TGI (PC-3 prostate) of the same compound?
Its TGI is > 100 µM.

What about the TGI (RPMI-8226 leukemia) of the same compound?
The TGI was > 100 µM.

What about the TGI (RXF 393 renal) of the same compound?
The TGI was > 100 µM.

What about the TGI (SF-268 CNS) of the same compound?
Its TGI is > 100 µM.

What about the TGI (SF-295 CNS) of the same compound?
Its TGI is > 100 µM.

And the TGI (SF-539 CNS)?
The TGI was > 100 µM.

What about the TGI (SK-MEL-28 melanoma) of the same compound?
Its TGI is > 100 µM.

What about the TGI (SK-MEL-5 melanoma) of the same compound?
The TGI was > 100 µM.

And the TGI (SN12C renal)?
Its TGI is > 100 µM.

And the TGI (SNB-19 CNS)?
Its TGI is > 100 µM.

And the TGI (SNB-75 CNS)?
The TGI was > 100 µM.

What about the TGI (SR leukemia) of the same compound?
Its TGI is > 100 µM.

And the TGI (SW-620 colon)?
Its TGI is > 100 µM.

What about the TGI (T-47D breast) of the same compound?
Its TGI is > 100 µM.

And the TGI (TK-10 renal)?
Its TGI is > 100 µM.

And the TGI (U251 CNS)?
Its TGI is > 100 µM.

And the TGI (UACC-257 melanoma)?
The TGI was > 100 µM.

And the TGI (UACC-62 melanoma)?
Its TGI is > 100 µM.

And the TGI (UO-31 renal)?
Its TGI is > 100 µM.

Which results are given for `C/C=C/C(C#N)(Cc1ccccc1)OP1(=O)OC(c2ccccc2)C(C)N1C` (stereo not drawn)?
TGI (786-0 renal): > 100 µM; TGI (A498 renal): > 100 µM; TGI (A549 NSCLC): > 100 µM; TGI (ACHN renal): > 100 µM; TGI (BT-549 breast): > 100 µM; TGI (CAKI-1 renal): > 100 µM; TGI (CCRF-CEM leukemia): 41.2 µM; TGI (COLO 205 colon): > 100 µM; TGI (DU-145 prostate): > 100 µM; TGI (EKVX NSCLC): > 100 µM; TGI (HCC-2998 colon): > 100 µM; TGI (HCT-116 colon): > 100 µM; TGI (HCT-15 colon): > 100 µM; TGI (HL-60(TB) leukemia): 41.9 µM; TGI (HOP-62 NSCLC): > 100 µM; TGI (HOP-92 NSCLC): > 100 µM; TGI (HS 578T breast): > 100 µM; TGI (HT29 colon): > 100 µM; TGI (IGROV1 ovarian): > 100 µM; TGI (K-562 leukemia): > 100 µM; TGI (KM12 colon): > 100 µM; TGI (LOX IMVI melanoma): > 100 µM; TGI (M14 melanoma): > 100 µM; TGI (MALME-3M melanoma): > 100 µM; TGI (MCF7 breast): > 100 µM; TGI (MDA-MB-231 breast): > 100 µM; TGI (MDA-MB-435): > 100 µM; TGI (MDA-N): > 100 µM; TGI (MOLT-4 leukemia): 78.4 µM; TGI (NCI-H23 lung): > 100 µM; TGI (NCI-H460 lung): > 100 µM; TGI (NCI-H522 lung): > 100 µM; TGI (NCI/ADR-RES ovarian): > 100 µM; TGI (OVCAR-3 ovarian): > 100 µM; TGI (OVCAR-5 ovarian): > 100 µM; TGI (OVCAR-8 ovarian): > 100 µM; TGI (PC-3 prostate): > 100 µM; TGI (RPMI-8226 leukemia): > 100 µM; TGI (RXF 393 renal): > 100 µM; TGI (SF-268 CNS): > 100 µM; TGI (SF-295 CNS): > 100 µM; TGI (SF-539 CNS): > 100 µM; TGI (SK-MEL-2 melanoma): > 100 µM; TGI (SK-MEL-28 melanoma): > 100 µM; TGI (SK-MEL-5 melanoma): > 100 µM; TGI (SK-OV-3 ovarian): > 100 µM; TGI (SN12C renal): > 100 µM; TGI (SNB-19 CNS): > 100 µM; TGI (SNB-75 CNS): > 100 µM; TGI (SR leukemia): > 100 µM; TGI (SW-620 colon): > 100 µM; TGI (T-47D breast): > 100 µM; TGI (TK-10 renal): > 100 µM; TGI (U251 CNS): > 100 µM; TGI (UACC-257 melanoma): > 100 µM; TGI (UACC-62 melanoma): > 100 µM; TGI (UO-31 renal): > 100 µM
